Data taken from patent US8710088B2, “Pharmaceutical and diagnostic compositions for use in the treatment and diagnosis of neurodegenerative diseases or amyloid diseases” (Max-Delbruck-Centrum fur Molekulare Medizin, priority 2004, dated 2014).

Target: amyloid-beta fibrils (Homo sapiens, UniProt P05067)
Test: binding to amyloid-beta aggregates located on a cellulose acetate membrane
Conditions: colored substances
Text: FIG. 16: Binding to amyloid-beta aggregates located on a cellulose acetate membrane

Chain of amyloid-beta fibrils (P05067 672-713 limits assumed): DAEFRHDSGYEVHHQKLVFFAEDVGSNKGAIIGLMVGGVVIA

Molecule | direct binding to amyloid-beta fibrils
Cc1cc(O)cc(O)c1-c1c(N)cc2oc3cc(=N)c(-c4c(C)cc(O)cc4O)c(C)c-3nc2c1C [beta-amino-orceimine] | bind directly to amyloid-beta fibrils
Cc1cc(O)cc(O)c1-c1c(N)cc2oc3cc(=O)c(-c4c(C)cc(O)cc4O)c(C)c-3nc2c1C [beta-amino-orcein] | bind directly to amyloid-beta fibrils
Cc1cc(O)cc(O)c1-c1c(O)cc2oc3cc(=O)c(-c4c(C)cc(O)cc4O)c(C)c-3nc2c1C [beta-hydroxy-orcein] | bind directly to amyloid-beta fibrils
c1ccc2c(c1)Nc1ccccc1O2 [phenoxazine] | bind directly to amyloid-beta fibrils
O=c1ccc2nc3ccccc3oc-2c1 [phenoxazone] | bind directly to amyloid-beta fibrils
alpha-amino-orceimine | bind directly to amyloid-beta fibrils
alpha-hydroxy-orcein | bind directly to amyloid-beta fibrils
gamma-amino-orcein | bind directly to amyloid-beta fibrils

Target: T1, huntingtin (Homo sapiens, UniProt P42858, INS38QQQQQQQQQQQQQQQQQQQQQQQQQQQQQQ)
T1 construct: expressed in transfected cells; host or cells: COS1 cells, transient transfection
Test: cell culture model of Huntington's chorea: COS1 cells transfected with pTL1-CAG51, membrane filter test
Format: cell-based
Conditions: 40-44 h, membrane filter method
Experimental: The compounds were then tested in several cell culture models of polyglutamine diseases, inter alia Huntington's chorea. For this purpose, COS1 cells were transiently transfected with the plasmid pTL1-CAG51 already described above (Sittler, A., Walter, S., Wedemeyer, N., Hasenbank, R., Scherzinger, E., Eickhoff, H., Bates, G. P., Lehrach, H. and Wanker, E. E. (1998) Mol Cell 2, 427-36) and cultivated for 44 h in the presence of solvents or the chemical agents. Subsequently, the amount of aggregate was determined with the help of the membrane filter test as described by Heiser et al. (2002). […] The latter could be deduced from the total amount of protein in the cell lysate (FIG. 2B) which was determined with the help of cell extracts.
7-Amino-8-(2,4-dihydroxy-6-methyl-phenyl)-1,9-dimethyl-phenoxazine-3-one was then tested in a cell culture model of Huntington's chorea. For this purpose, COS1 cells were transiently transfected with the plasmid pTL1-CAG51 already described above (Sittler, A., Walter, S., Wedemeyer, N., Hasenbank, R., Scherzinger, E., Eickhoff, H., Bates, G. P., Lehrach, H. and Wanker, E. E. (1998) Mol Cell 2, 427-36) and cultivated for 40-44 h in the presence of solvents or 7-amino-8-(2,4-dihydroxy-6-methyl-phenyl)-1,9-dimethyl-phenoxazine-3-one. Subsequently, the amount of aggregate was determined with the help of the membrane filter test as described by Heiser et al. (2002). […] The latter could be deduced from the total amount of protein (FIG. 2B) which was determined with the help of cell extracts.

T1 sequence (P42858 with tags, fused parts or gaps with the stated changes limits assumed): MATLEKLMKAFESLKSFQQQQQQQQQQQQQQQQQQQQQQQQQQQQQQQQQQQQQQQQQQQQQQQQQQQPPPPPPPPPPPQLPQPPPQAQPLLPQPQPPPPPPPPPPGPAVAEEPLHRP

Molecule | Inhibition of the aggregation of huntingtin in mammalian cells
C1=CC2=Nc3ccccc3OC2=CC1 [3H-phenoxazine, 3H-Phenoxazine] | Inhibition of the aggregation
CCOC(=O)C(CC(C)C)c1nc(-c2ccccc2)ns1 (stereo not shown) [4-methyl-2-(3-phenyl-[1,2,4]thiadiazole-5-yl)-pentanoic acid ethyl ester] | Inhibition of the aggregation
O=C(Nc1nccs1)c1ccc(-c2ccc(C(=O)Nc3nccs3)o2)cc1 [5-[4-(Thiazole-2-ylcarbamoyl)-phenyl]-furan-2-carboxylic acid thiazole-2-ylamide] | Inhibition of the aggregation
Cc1cc(=O)cc2oc3cc(N)cc(C)c3nc1-2 [7-amino-1,9-dimethyl-phenoxazine-3-one] | Inhibition of the aggregation
Cc1cc(O)cc(O)c1-c1c(N)cc2oc3cc(=O)c(-c4c(C)cc(O)cc4O)c(C)c-3nc2c1C [beta-amino-orcein] | Inhibition of the aggregation
O=c1ccc2nc3ccccc3oc-2c1 [phenoxazin-3-one] | Inhibition of the aggregation
alpha-hydroxy-orcein | Inhibition of the aggregation

Target: T2, wild type Aβ1-42 (Homo sapiens, UniProt P05067)
T2 construct: non-mutated (wild type) Aβ1-42
Test: aggregation assay with wild type Aβ1-42, membrane filter method
Format: biochemical
Conditions: peptide 15 μM, pH 7.4, 42 h, 37° C.
Experimental: Analogously, the compounds were also examined in aggregation assays with the amyloid β-peptide Aβ1-42(E22Q), which is a particularly rapidly aggregating variant of amyloid β, as well as with non-mutated (wild type) Aβ1-42. For this purpose, the peptide was incubated at a concentration of 15 μM in a phosphate buffer with a physiological pH value of 7.4 for 42 h at 37° C. and subsequently, aliquots were examined by means of the membrane filter method (Figure) or electron microscopy (Figures) as well. […] Cell viability measurements were carried out in neuronally differentiated PC12 cells to which beta-amyloid and the substances to be tested were added extracellularly in order to examine whether the compounds are able to reduce toxicity caused by amyloid-beta. After 48 h the viability of the cells (approximately corresponds to the number of vital cells) was measured.

T2 sequence (P05067 672-713 limits assumed): as the sequence (P05067 672-713 limits assumed) above

Molecule | Inhibition of the aggregation of wild type Aβ1-42 (SDS-insoluble aggregates)
CC1=Nc2cccc3cccc(c23)N1C [1,2-dimethyl-1H-perimidine] | Inhibition of the aggregation
Cc1cc(=O)cc2oc3cccc(C)c3nc1-2 [1,9-dimethyl-phenoxazine-3-one] | Inhibition of the aggregation
S=C1Nc2cccc3cccc(c23)N1 [1H,3H-perimidine-2-thione] | Inhibition of the aggregation
c1cc2c3c(cccc3c1)NC(c1c[nH]cn1)=N2 [2-(1H-imidazole-4-yl)-1H-perimidine, 2-(1H-Imidazole-4-yl)-1H-perimidine] | Inhibition of the aggregation
COC(=O)C1CC2=C(Cc3ccccc32)CN1c1ccco1 (stereo not shown) [2-Furan-2-yl-2,3,4,9-tetrahydro-1H-indenol[2,3-c]pyridine-3-carboxylic acid methyl ester] | Inhibition of the aggregation
Cc1ccc(C2=Nc3cccc4cccc(c34)N2)cc1 [2-p-tolyl-1H-perimidine] | Inhibition of the aggregation
c1cncc(C2=Nc3cccc4cccc(c34)N2)c1 [2-pyridine-3-yl-1H-perimidine] | Inhibition of the aggregation
N#Cc1ccc(C2=Nc3cccc4cccc(c34)N2)cc1 [4-(1H-perimidine-2-yl)-benzonitrile] | Inhibition of the aggregation
Cc1cc(=O)cc2oc3cc(O)cc(C)c3nc1-2 [7-hydroxy-1,9-dimethyl-phenoxazine-3-one] | Inhibition of the aggregation
Cc1cc(O)cc(O)c1-c1c(O)cc2oc3cc(=O)c(-c4c(C)cc(O)cc4O)c(C)c-3nc2c1C [beta-hydroxy-orcein] | Inhibition of the aggregation

System: huntingtin-Exon-1 with 103 glutamines (Htt103Q-EGFP)
Test: stably transfected PC12 cell line with inducible Htt103Q-EGFP, membrane filter test
Format: cell-based
Conditions: muristerone induced, 44 h, membrane filter method
Experimental: The compounds were additionally tested in a stably transfected PC12 cell line. This cell line was transfected with an ecdysone-inducible plasmid whose N-terminal codes for huntingtin-Exon-1 marked with GFP with 103 glutamines (Htt103Q-EGFP). The Htt103Q-EGFP expression was induced with muristerone and the cells were subsequently cultivated for 44 h in the presence of solvents or the chemical agents. Subsequently, the amount of aggregate was determined with the help of the membrane filter test as described by Heiser et al. (2002). Furthermore, the amount of aggregate was determined with the help of a fluorescence measurement (data not shown). […] The latter could be deduced from the total amount of protein in the cell lysate (FIG. 2B) which was determined with the help of cell extracts.

Molecule | Inhibition of the aggregation of huntingtin (Exon-1) in mammalian cells
CN(C)CCCNc1nc2c(ccc3[nH]c(=O)c(C#N)cc32)s1 [2-(3-dimethylamino-propylamino)-7-oxo-6,7-dihydro-thiazolo[4,5-f]quinoline-8-carbonitrile] | Inhibition of the aggregation
N#Cc1cc2c(ccc3sc(N)nc32)[nH]c1=O [2-Amino-7-oxo-6,7-dihydro-thiazolo[4,5-f]quinoline-8-carbonitrile] | Inhibition of the aggregation
CCN(CC)CCN(CC)c1nc2c(ccc3[nH]c(=O)c(C#N)cc32)s1 [2-[(2-diethylamino-ethyl)-ethyl-amino]-7-oxo-6,7-dihydro-thiazolo[4,5-f]quinoline-8-carbonitrile] | Inhibition of the aggregation
CN(C)CCN(Cc1ccccc1)c1nc2c(ccc3[nH]c(=O)c(C#N)cc32)s1 [2-[Benzyl-(2-dimethylamino-ethyl)-amino]7-oxo-6,7-dihydro-thiazolo[4,5-f]quinoline-8-carbonitrile] | Inhibition of the aggregation
N#Cc1cc2c(ccc3sc(NCCN4CCCCC4)nc32)[nH]c1=O [7-Oxo-2-(2-piperidine-1-yl-ethylamino)-6,7-dihydrothiazolo[4,5-f]quinoline-8-carbonitrile] | Inhibition of the aggregation
CC(=O)N(CCN(C)C)c1nc2c(ccc3[nH]c(=O)c(C#N)cc32)s1 [N-(8-Cyano-7-oxo-6,7-dihydro-thiazolo[4,5-f]quinoline-2-yl)-N-(2-dimethylamino-ethyl)-acetamide] | Inhibition of the aggregation
CN(C)CCN(C=O)c1nc2c(ccc3[nH]c(=O)c(C#N)cc32)s1 [N-(8-Cyano-7-oxo-6,7-dihydro-thiazolo[4,5-f]quinoline-2-yl)-N-(2-dimethylamino-ethyl-formamide] | Inhibition of the aggregation
CN(C)CCCN(C=O)c1nc2c(ccc3[nH]c(=O)c(C#N)cc32)s1 [N-(8-Cyano-7-oxo-6,7-dihydro-thiazolo[4,5-f]quinoline-2-yl)-N-(3-dimethylamino-propyl)-formamide] | Inhibition of the aggregation

Target: T3, mutant huntingtin (GST fusion protein GST-HDQ51) (Homo sapiens, UniProt P42858, INS38QQQQQQQQQQQQQQQQQQQQQQQQQQQQQQ)
T3 construct: GST (N)
Test: in vitro aggregation of mutant huntingtin, membrane filter test
Format: biochemical
Conditions: membrane filter method
Experimental: As in the tests described by Heiser et al. (2002), the protein was used for aggregation tests to which either only solvent or solvent and the chemical agent in question was added. Aliquots of these batches were examined by means of the membrane filter test and electron microscopy.
As in the tests described by Heiser et al. (2002), the protein was used for aggregation tests to which either only solvent or solvent and 7-amino-8-(2,4-dihydroxy-6-methyl-phenyl)-1,9-dimethyl-phenoxazine-3-one was added. Aliquots of these batches were examined by means of the membrane filter test (FIG. 1B) and electron microscopy (FIGS. 1E and 1F).

T3 sequence (P42858 with tags, fused parts or gaps with the stated changes limits assumed): as the sequence (P42858 with tags, fused parts or gaps with the stated changes limits assumed) above

Molecule | Inhibition of the aggregation of huntingtin (Exon-1) (SDS-insoluble aggregates)
CN1C(CO)=Nc2cccc3cccc1c23 [(1-methyl-1H-perimidine-2-yl)-methanol] | Inhibition of the aggregation
